Results as given in patent US20240069044A1, “METHOD FOR DIAGNOSING A PREDISPOSITION OF A LIVING BEING TO DEVELOP THROMBOCYTOPENIA” (priority 2021, published 2024).

How the values were obtained:
[1] = test system: platelets from healthy donors; assay: IgG binding to platelets by flow cytometry after incubation with VITT sera; assay type: cell-based
PF4/heparin complexes = molecular target: T1, PF4/heparin complexes (Homo sapiens, UniProt P02776); assay: IgG PF4/heparin EIA with sera from VITT patients; assay type: binding; conditions: VITT sera (8/8), in the presence of high concentration of heparin; without: 2.591±0.642; p<0.0001
T1 construct: purchased Hyphen Biomed, Neuville-sur-Oise, France
T1 sequence (P02776 32-101): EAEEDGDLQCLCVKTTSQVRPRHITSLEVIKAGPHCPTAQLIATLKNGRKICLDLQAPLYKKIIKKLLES
Procedure: (§1) A commercially available IgG-Enzyme Immune Assay (EIA) was used in accordance to manufacturer's instructions (Hyphen Biomed, Neuville-sur-Oise, France). Per manufacturer's recommendations, a sample was considered reactive if the optical density (OD) was ≥0.500. The ability of sera to activate platelets was tested using the functional assay heparin induced platelet aggregation assay (HIPA) as previously described. In brief, serum was tested with washed platelets (wPLTs) from four different healthy donors in the absence (buffer alone) or in the presence of unfractionated heparin (0.2 IU/mL and 100 IU/mL, [Ratiopharm, Ulm, Germany]). Reactions were placed in microtiter wells containing spherical stir bars and stirred at approximately 500 revolutions per minute (rpm). Wells were examined optically at five-minutes (min) interval for loss of turbidity. A serum was considered reactive (positive) if a shift from turbidity to transparency occurred within 30 min in at least two platelet suspensions. Observation time was 45 min. Each test included a diluted serum from a patient with HIT as a weak positive control, collagen (5 μg/mL) as strong positive control and a serum from a healthy donor as a negative control.

[2] = test system: washed platelets from healthy donors; assay: Heparin induced platelet activation assay (HIPA) with modifications, VITT sera; assay type: cell-based; conditions: for platelet activation by VITT sera in the presence of the additive: result in words
Procedure: as §1
To investigate the ability of patients sera to activate platelets, the HIPA assay was used with several modifications. Sera were incubated with washed platelets in the presence of I) buffer, II) 0.2 IU/mL LMWH, III) 100 IU/mL UFH, IV) an Fc gamma receptor IIa (FcγRIIA)-blocking monoclonal antibody (mAb IV.3), VI) 30 mg/mL IVIG, VII) 25 μg/mL PF4, VIII) 50 μg/mL Spike-RBD, IX) PF4/Spike-RBD complexes, X) PF4+RBD or XI) ChAdOx1 nCoV-19 (XII). Conditions with PF4 and RBD were also repeated in the presence of high concentration of heparin (100 IU/mL UFH). […] (FIG. 5B). […] Antibody-mediated platelet activation was inhibited when low molecular weight heparin (LMWH) was added at low concentrations by testing three sera.

[3] = test system: washed platelets from healthy donors; assay: Procoagulant platelets induced by HIT patient sera, washed platelets, flow cytometry; assay type: cell-based; conditions: for generation of procoagulant platelets by patient sera in the presence of the additive: HIT, washed platelets (FIG. 8) or PRP (FIG. 9), 0.2 IU/mL LMWH, high concentration UFH, PF4, IV.3, result in words
Procedure: Prior to usage, all sera were heat-inactivated at 56° C. for 30 min, followed by a sharp centrifugation step at 5,000 g. The supernatant was collected in a fresh tube. For determination of procoagulant platelets, 5 μL serum was incubated with 25 μL washed platelets ([…]) for 1 h under rotating conditions at RT. Where indicated, cell suspensions were preincubated with PF4 (10 μg/ml) and Heparin (0.2 or 100 IU/ml). Afterwards, samples were washed once (7 min, 650 g, RT, without brake) and gently resuspended in 75 μL of phosphate-buffered saline (PBS, Biochrom, Berlin, Germany). Platelets were then stained with Annexin V-FITC and CD62-APC (Immunotools, Friesoythe Germany) and directly analyzed by flow cytometry (FC). Test results were determined as fold increase of the percentage of double PS/CD62p positive events in platelets upon incubation with patients' sera compared to the baseline.
37.5 μl wPLTs/PRP were supplemented with 1 μl of 10 IUs heparin (final concentration 0.2 IUs) or 1 μl of 5000 IUs heparin (final concentration 100 IUs) and 5 μL serum/IgG from HIT patients or control serum/IgG. Samples were filled up with PBS to a final volume of 50 μl and incubated for 1 hour under rotating conditions at RT. Afterwards, 5 μl of the PLT suspension were transferred into a final volume of 100 μL of Hank's balanced salt solution (HBSS) containing 137 mM NaCl, 1.25 mM CaCl2), 5.5 mM glucose, [Carl-Roth, Karlsruhe, Germany]) and incubated with 1 μL anti-CD62p-APC (BD, San Jose, USA), 1 μL Annexin-FITC (Immunotools, Friesoythe, Germany) and 2 μL anti-CD42a-PerCP (BD, San Jose, USA) for 30 min at RT in the dark. PLTs that were treated with thrombin receptor activating peptide (TRAP-6, [10 μM, 30 min at RT]) and ionomycin [5 μM, 15 min at RT] (both Sigma-Aldrich, St. Louis, USA) served as positive controls. Afterwards, PLTs were resuspended with HBSS to a final volume of 500 μL and immediately assessed via flow cytometry ([FC]), Navios, Beckman-Coulter, Brea, USA).
To investigate the mechanisms of HIT antibody-induced changes on PLTs, […] wPLTs/PRP were pretreated with Fc-gamma-RIIA blocking monoclonal antibody (moAb) anti-CD32 (moAb IV.3; Stemcell™ technologies, Vancouver, Canada) or a monoclonal isotype control ([SC-2025] Santa Cruz Biotechnology, Dallas, USA) for 30 min at RT prior to HIT serum/IgG treatment.

[4] = test system: washed platelets from healthy donors; assay: Antibody-mediated procoagulant platelets (CD62p/PS positive) by flow cytometry, VITT sera; assay type: cell-based; conditions: for FI CD62p/PS positive PLTs: VITT sera with washed platelets, 0.2 IU/mL LMWH, high concentration UFH, mAb IV.3, high concentrations of IgG, PF4 or Spike-RBD, sera alone 22.94±6.14
[5] = test system: PRP from healthy individuals; assay: Procoagulant platelets in platelet rich plasma (PRP) with patient sera/HIT IgG, flow cytometry; assay type: cell-based; conditions: for procoagulant PLT formation by HIT IgG fractions: PRP
Procedure: IgG fractions were isolated from HIT as well as from control sera by the use of a commercially available IgG-purification-kit (Melon™-Gel IgG Spin Purification Kit, Thermo Fisher Scientific, Waltham, USA) as recommended by the manufacturers. In brief, heat inactivated serum was diluted 1:10 in purification buffer and incubated with the kit specific Gel IgG Purification Support over four cycles for 10 min. Subsequently, periodically performed centrifugation steps through a 10 μm pore size filter tube were performed for 1 min at 5000×g. The flow throw was collected into 100 kDa pore sized centrifugal filters (Amicon Ultra-4, Merck Millipore, Cork, Ireland) with subsequent concentration to the initial volume of the used serum sample via centrifugation (10-15 min, 2000×g, 4° C., with brake). IgG concentrations were measured by excitation using a NanoDrop One at a wavelength of […] (VWR, Bruchsal, Germany).
For determination of procoagulant platelets in PRP, sera were prepared as described above. For PRP preparation, venous blood from healthy individuals was withdrawn into vacutainers containing sodium citrate 0.105 M (3.2%) (BD, Plymouth, UK) and allowed to rest for 20 min at RT. PRP was prepared by centrifugation (20 min, 120 g, RT) and adjusted with autologous platelet poor plasma (PPP, [10 min, 2000 g, RT]) to a PLT count of 300×10^6/ml. […] Afterwards, samples were processed as described for washed PLTs and analysed by flow cytometry (FC). Test results were determined as fold increase of the percentage of double PS/CD62p positive events in platelets upon incubation with patients' sera compared to the baseline.
37.5 μl wPLTs/PRP were supplemented with 1 μl of 10 IUs heparin (final concentration 0.2 IUs) or 1 μl of 5000 IUs heparin (final concentration 100 IUs) and 5 μL serum/IgG from HIT patients or control serum/IgG. […] Afterwards, PLTs were resuspended with HBSS to a final volume of 500 μL and immediately assessed via flow cytometry ([FC]), Navios, Beckman-Coulter, Brea, USA).

heparin
FI of MFI IgG binding to platelets ([1]; heparin at high concentrations (100 IU/ml), without heparin 4.39±1.15, p 0.016): 1.51±0.66 fold increase | FI of MFI of IgG binding to platelets ([1]; heparin at low concentrations (0.2 U/mL), without heparin 4.39±1.15, p 0.688): 3.60±2.01 fold increase | mean optical density [OD] of IgG antibodies against PF4/heparin complexes (PF4/heparin complexes): 0.176±0.073 OD | platelet activation by VITT sera in the presence of the additive [2]: All reactions were inhibited | CD62p/PS positive PLTs, mean %±SEM ([3]; HIT sera with wPLTs, supratherapeutic (Hep. 100 IUs) doses of heparin): 1.18±0.28% | CD62p/PS positive PLTs, mean percent [mean %]±SEM ([3]; HIT sera with wPLTs, therapeutic (0.2 IUs) heparin, HC sera 1±0): 44.99±6.26% | generation of procoagulant platelets by patient sera in the presence of the additive [3]: completely inhibited | FI CD62p/PS positive PLTs [4]: 1.92±0.96 fold increase | procoagulant PLT formation by HIT IgG fractions ([5]; supratherapeutic (100 IUs) doses of heparin): not observed | procoagulant PLT formation by HIT IgG fractions ([5]; therapeutic doses (0.2 IUs) heparin): showed the capability to induce procoagulant PLTs

PF4: small cytokine of the CXC chemokine family released from alpha-granules of activated platelets
change in IgG binding to platelets in the presence of the additive ([1]; result in words): Only one serum showed increased binding | Median time to aggregate ([2]; VITT sera with washed platelets, 0.2 IU/mL LMWH, 25 μg/mL PF4, mAb IV.3 or 30 mg/mL IVIG, buffer alone 5 min, observation time 45 min): 5 min | platelet activation by VITT sera in the presence of the additive [2]: only in the presence e of PF4 | generation of procoagulant platelets by patient sera in the presence of the additive [3]: increase of procoagulant platelets | FI CD62p/PS positive PLTs [4]: 37.07±23.73 fold increase | procoagulant phenotype induced by diluted VITT sera ([4]; diluted sera (from 1:64), result in words): only in the presence e of PF4 | procoagulant phenotype, sera from HIPA negative patients with PRP ([5]; in presence of PF4, when treated with 0.2 IU/ml Heparin (LMWH)): Strong increase
